# Patent publication US20020132236A1, “Specific inhibitors of ribosome recycling factors (RRF)” (priority 2000, published 2002)
# “Also recorded” adds a separate entry of the source.
# Experiments:
# Swiss Webster male mice = assay: Toxicity studies in mice; format: in vivo; settings: iv, ip
# Protocol: Swiss Webster male mice weighing 20-25 grams receive intraperitoneal or intravenous injections of tetra guanylic acid, dissolved in 0.9% sodium chloride, see Table 1 for dosages.
# For sd-G4 to be active as a specific inhibitor of RRF sd-G4 must be non-toxic in living organisms. Dosages (20-125 mg/kg) of sd-G4 and its related tetra nucleotides are administered to mice intraperitonially, as well as intraveniously, and neither acute nor chronic toxicity is noted, i.e., no grossly observable changes in growth activity, locomotor activity, food intake, or water intake during an observation period of 25 days. Moreover, no pathological signs are noted at autopsy (Table 1). […] Thus, sd-G4 is best choice for a lead compound in the computer based rational design of the anti RRF agents.
# RRF [1] = target: T1, RRF (Escherichia coli, UniProt P0A805); assay: RRF reaction: conversion of polysomes to monosomes (sucrose gradient); format: biochemical, E. coli; settings: for Inhibition of the RRF reaction (conversion of polysomes to monosome): dose response, expressed as percent inhibition
# T1 sequence (P0A805 whole entry): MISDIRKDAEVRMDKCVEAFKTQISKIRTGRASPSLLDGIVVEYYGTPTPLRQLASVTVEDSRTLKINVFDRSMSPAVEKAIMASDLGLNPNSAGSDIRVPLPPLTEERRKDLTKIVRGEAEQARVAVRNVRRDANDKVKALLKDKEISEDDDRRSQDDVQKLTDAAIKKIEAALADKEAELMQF
# Protocol: The reaction mixture (275 μl) contained 72 ng/ml RRF, 0.4 μg/ml EF-G, 363 nM GTP, 10 mM Tris-Cl, pH 7.4, 8.2 mM MgSO4, […] NH4Cl, 0.3 mM DTT, […] puromycin, 1 A260 polysome of E. coli, and an increasing concentration of sd-G4, as indicated in FIG. 1. The reaction mixture is incubated for 15 min at 30° C., loaded onto a sucrose gradient (15% to 30% in buffer J (Hirashima, A., Kaji, A., Biochemistry 11: 461-471, 1972) and centrifuged at 40,000 rpm for 75 min at 4° C. The ISCO density gradient analyzer monitored sedimentation profiles of the polyribosome. The value is expressed as a percent inhibition calculated from the area of 70S and polysome on those profiles.
# [2] = tested on: MS2 RNA dependent protein synthesis; assay: MS2 RNA dependent protein synthesis in S30 extract; format: biochemical, E. coli; settings: 7 μM, 8 minute point
# Protocol: The reaction mixture (30 μl) contains 12 μl S30 (Kaji, 1968), Premixture (Promega), 2.4 μg MS2 phage RNA (Boehringer Mannheim), 0.1 mM amino acids mixture minus methionine (Promega), 10.1 pmole ^35S-methionine (NEN, 0.6 Ci/μmole), 0.6 A ^260U S30 extract (Promega), and 1, 4, 7, or 10 μM sd-G4 (FIG. 3). The reaction mixture is incubated at 37° C. At various times after the onset of the reaction, hot TCA (trichloroacetic acid) insoluble counts are measured.
# [3] = tested on: translation of polyuridylic acid (Poly U) into polyphenylalanine; assay: Translation of polyuridylic acid (Poly U) into polyphenylalanine in S30 extract; format: biochemical, E. coli; settings: as high as 10 μM
# Protocol: The reaction mixture (30 μl) contains 12 μl S30, Premixture (Promega), 20 μM ^14C-phenylalanine (Amersham, 450 Ci/mole), 10 mM Mg acetate (MgAc), 0.08 μg/ml polyU (Sigma), 1 A260 unit of E. coli S30 extract (Promega), and 1, 4, 7, or 10 μM sd-G4 (FIG. 4). The reaction mixture is incubated at 37° C. At various periods after the onset of the reaction, hot TCA (trichloroacetic acid) insoluble counts are measured.
# RRF [4] = target: T1, RRF; assay: Release of ribosome-bound deacylated tRNA by RRF; format: biochemical; settings: 7 μM, various amounts of E. coli polysome
# Protocol: The reaction mixture (550 μl) for the RRF reaction contains 0.2 nmole RRF where indicated, 0.2 nmole EF-G, 0.37 μM GTP, 275 μM puromycin, 10 μM sd-G4 where indicated, and various amounts of E. coli polysome (see FIG. 8). The mixture is incubated for 15 min. at 30° C. The released tRNA is separated from the complex with pre-washed Microcon 100 (Millipore, 330× g, 40 min). The filter is washed once by centrifugation with 550 μl of a buffer (10 mM Tris-Cl, pH 7.6, 8.2 mM MgSO4, 80 mM NH4Cl, 0.14 mM DTT) and combined with the filtrate. Separated tRNA solution is concentrated with Microcon 30 (Millipore, 14,000× g, 15 min. twice) to a total volume of 14 μl. The concentrated tRNA is charged with 0.15 μCi of ^14C-amino acids mixture (Amersham, 52 mCi/mg) in 30 μl of the reaction mixture (50 mM Tris-Cl, pH 7.8,10 mM MgAc, 6 mM β-mercaptoethanol, 3 mM ATP, 5 mM phosphoenolpyruvate, 138 μg pyruvate kinase, 33.3 μg aminoacyl tRNA synthetases). Cold (4° C.) TCA (trichloro acetic acid) insoluble radioactivity is measured to estimate the amount of tRNA released. In this experiment, the amount of tRNA released is measured by its capacity to accept an amino acid.
# E. coli RRF = E. coli RRF (Escherichia coli, UniProt P0A805); assay: Gel retardation assay with E. coli RRF and 32P-end-labeled sd-G4; format: binding; settings: about 2.4 μM, competed by non-labeled sd-G4, BSA negative control
# Sequence of E. coli RRF (P0A805 whole entry): as above
# Protocol: The reaction mixture for the binding of ^32P-end-labeled sd-G4 to RRF (10 μl) contains 8 mM Tris-Cl(pH 7.6), 9.7 mM MgSO4, 81 mM NH4Cl, 1.3 mM DTT, and approximately 2.4 μM of ^32P-end-labeled sd-G4. E. coli RRF, EF-G, polysome, BSA are added as indicated in FIG. 9 and competitor non-labeled sd-G4 is added at ½, 1, 2, and 4 times the concentration of the labeled sd-G4 (FIG. 9). The mixture is incubated at 30° C. for 15 min. 5% Glycerol and one-tenth volume of 25% Ficoll containing xylane cyanol and bromphenol blue is added, and the entire reaction mixture is subjected to 4% polyacrylamide gel (29:1, acrylamide/bisacrylamide) electrophoresis at 10 V/cm with constant recirculation of TBE buffer (89 mM Tris-borate, 2.5 mM EDTA, pH 8.3). The gel is dried onto Whatman 3MM paper and subject to autoradiography.
# RRF [5] = target: T1, RRF; assay: RRF reaction: conversion of polysomes to monosomes (sucrose gradient); format: biochemical, E. coli; settings: 1× RRF (72 ng/ml) vs 2× RRF (144 ng/ml)
substance,measurement,setting,value
5′ phosphorylated sd-G4 [p sd-G4],Visual effect,Swiss Webster male mice; 20 mg-125 mg/kg,none
Tetraadenylic acid,Inhibition of the RRF reaction (conversion of polysomes to monosome),RRF [1],ineffective
"deoxyguarylic acid [d-G4, reference compound]",Visual effect,Swiss Webster male mice; 125 mg/kg,none
phosphorothioate tetradeoxyguanylic acid [sd-G4],Concentration that significantly inhibited the RRF reaction,"RRF [1]; 72 ng/ml RRF, 15 min at 30° C.",5 µM
same,Inhibition of the RRF reaction (conversion of polysomes to monosome),RRF [1],inhibits the RRF reaction in a dose-dependent manner; also recorded: has inhibitory activity; also recorded: effective
same,Inhibition of protein synthesis (MS2 phage RNA translation),[2],50%
same,Polyphenylalanine formation (incorporation of labeled phenylalanine),[3],does not inhibit
same,Release of ribosome-bound deacylated tRNA by RRF,RRF [4],does not inhibit release of tRNA
same,Binding to RRF (retarded electrophoretic movement),E. coli RRF,binds
same,Visual effect,Swiss Webster male mice; 20 mg-125 mg/kg,none
same,Effect of excess RRF on inhibition of the RRF reaction,RRF [5],reduced by addition of more RRF
phospo diester tetraguanylic acid [pd-G4],Inhibition of the RRF reaction (conversion of polysomes to monosome),RRF [1],not effective in inhibiting RRF
same,Inhibition of the RRF reaction (conversion of polysomes to monosome),RRF [1]; listed as phosphodiester oligoG,retains the ability to inhibit RRF to some extent
"riboinosinic tetraphosphate [(RIP)4, reference compound]",Visual effect,Swiss Webster male mice; 125 mg/kg,none
tetracytidylic acid,Inhibition of the RRF reaction (conversion of polysomes to monosome),RRF [1],ineffective
tetrathymidylic acid,Inhibition of the RRF reaction (conversion of polysomes to monosome),RRF [1],ineffective
